Results reported in ChEMBL document CHEMBL1201862, “PubChem BioAssay data set” (2004).
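Briefly, cells in 96-well plates were exposed to five compound concentrations for 48 h, and endpoints were estimated by linear interpolation. The concentration for 50% growth inhibition is given as GI50.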 Active and inactive are the calls of the source. No stated cut-off is given here; in the data, active = GI50 up to about 1.1 µM and inactive = higher.

Key:
Experiment in all cases: DTP human tumour cell line panel, 48 h
786-0 = test system: 786-0
CAKI-1 = test system: CAKI-1
CCRF-CEM = test system: CCRF-CEM
EKVX = test system: EKVX
K562 = test system: K562
KM12 = test system: KM12
Malme-3M = test system: Malme-3M
NCI-H460 = test system: NCI-H460
NCI-H522 = test system: NCI-H522
RPMI-8226 = test system: RPMI-8226
SF-295 = test system: SF-295
SN12C = test system: SN12C
SNB-75 = test system: SNB-75
UACC-257 = test system: UACC-257
UO-31 = test system: UO-31
HT-29 = test system: HT-29
NCI-H226 = test system: NCI-H226

Measured: GI50

O=C1CCSC2=C1SCc1sccc12
inactive: 786-0 > 100 µM | CAKI-1 > 100 µM | CCRF-CEM > 100 µM | EKVX 93.5 µM | K562 > 100 µM | KM12 > 100 µM | Malme-3M > 100 µM | NCI-H460 > 100 µM | NCI-H522 > 100 µM | RPMI-8226 79.3 µM | SF-295 > 100 µM | SN12C > 100 µM | SNB-75 30.5 µM | UACC-257 > 100 µM | UO-31 > 100 µM

CCOc1cc2c(cnc3c4cc(OC)c(OC)cc4ccc23)cc1OC
inactive: 786-0 > 100 µM | CAKI-1 > 100 µM | CCRF-CEM > 100 µM | EKVX > 100 µM | HT-29 > 100 µM | K562 > 100 µM | KM12 > 100 µM | Malme-3M > 100 µM | NCI-H460 > 100 µM | NCI-H522 > 100 µM | RPMI-8226 > 100 µM | SF-295 > 100 µM | SN12C > 100 µM | SNB-75 > 100 µM | UACC-257 > 100 µM | UO-31 > 100 µM

COc1ccccc1C1c2cc3c(cc2OC(O)(CO)C1C(=O)O)OCO3.COc1ccccc1C1c2cc3c(cc2OC2(O)COC(=O)C12)OCO3 (stereo unspecified)
inactive: 786-0 > 100 µM | CCRF-CEM 92.7 µM | EKVX > 100 µM | HT-29 > 100 µM | K562 > 100 µM | KM12 > 100 µM | Malme-3M > 100 µM | NCI-H226 > 100 µM | NCI-H460 > 100 µM | RPMI-8226 > 100 µM | SF-295 > 100 µM | SN12C > 100 µM | SNB-75 26.9 µM | UACC-257 > 100 µM | UO-31 > 100 µM

N#CC1C[C@@H]2CC3(CCC2CN1C(=O)c1ccccc1)OCCO3 (stereo partly specified)
inactive: 786-0 > 100 µM | CCRF-CEM > 100 µM | EKVX > 100 µM | HT-29 > 100 µM | K562 > 100 µM | KM12 > 100 µM | Malme-3M > 100 µM | NCI-H460 > 100 µM | RPMI-8226 > 100 µM | SF-295 > 100 µM | SN12C > 100 µM | SNB-75 > 100 µM | UACC-257 > 100 µM | UO-31 > 100 µM

CCOC(=O)[C@H]1CSC[C@@H](C(=O)OC)N1
inactive: 786-0 > 100 µM | CAKI-1 > 100 µM | CCRF-CEM > 100 µM | EKVX > 100 µM | HT-29 > 100 µM | K562 > 100 µM | KM12 > 100 µM | Malme-3M > 100 µM | NCI-H460 > 100 µM | NCI-H522 > 100 µM | RPMI-8226 > 100 µM | SF-295 > 100 µM | SN12C > 100 µM | SNB-75 23.1 µM | UACC-257 > 100 µM | UO-31 > 100 µM

NC1=NNC(=O)c2nnc3c(C(=O)O)cnn3c2S1
inactive: 786-0 > 100 µM | CAKI-1 > 100 µM | CCRF-CEM 10 µM | EKVX > 100 µM | HT-29 > 100 µM | K562 > 100 µM | KM12 > 100 µM | Malme-3M > 100 µM | NCI-H522 > 100 µM | RPMI-8226 > 100 µM | SF-295 > 100 µM | SN12C > 100 µM | SNB-75 47.4 µM | UO-31 > 100 µM

O=C(CP(=O)(O)O)c1cccs1
inactive: 786-0 > 100 µM | CAKI-1 > 100 µM | CCRF-CEM > 100 µM | EKVX > 100 µM | HT-29 > 100 µM | K562 > 100 µM | KM12 > 100 µM | Malme-3M > 100 µM | NCI-H460 > 100 µM | NCI-H522 > 100 µM | RPMI-8226 > 100 µM | SF-295 > 100 µM | SN12C > 100 µM | SNB-75 > 100 µM | UACC-257 > 100 µM | UO-31 > 100 µM

CC(=O)Nc1ccc(/C=C2\N=C(c3ccccc3)OC2=O)cc1
inactive: 786-0 > 100 µM | CCRF-CEM 33.1 µM | EKVX > 100 µM | K562 > 100 µM | KM12 68.7 µM | Malme-3M 6.1 µM | NCI-H226 > 100 µM | NCI-H460 68.5 µM | RPMI-8226 48.8 µM | SF-295 65.2 µM | SN12C 55 µM | SNB-75 64.9 µM | UACC-257 > 100 µM | UO-31 > 100 µM

Cc1cccc(C)c1NC(=O)CCCC(=O)C1CCC/C1=N\NC(=O)C(=O)NN (stereo unspecified)
inactive: 786-0 > 100 µM | CAKI-1 > 100 µM | CCRF-CEM > 100 µM | EKVX > 100 µM | HT-29 > 100 µM | K562 > 100 µM | KM12 > 100 µM | Malme-3M > 100 µM | NCI-H226 > 100 µM | NCI-H460 > 100 µM | RPMI-8226 > 100 µM | SF-295 > 100 µM | SN12C > 100 µM | SNB-75 > 100 µM | UACC-257 > 100 µM | UO-31 > 100 µM
